Where two headings read alike, the source gives them in different places.
Molecular target: T1, BCL6 (Homo sapiens, UniProt P41182)
T1 construct: endogenous in cells; host or cells: T47D breast cancer epithelial cells
Assay: Immunofluorescence protocol for high content imaging of BCL6 (degradation) in T47D cells, 3 days compound treatment
Format: cell-based
Settings: for Dmax: read-out: Mean Dmax (%)** category; for DC50: read-out: Mean DC50 (nM)* category
Outline: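 High content immunofluorescence imaging (10×, 4 fields/well) of BCL6 using rabbit primary antibody, Alexa-488 secondary, cell mask and Hoechst nuclear stain after PFA fixation. Before staining, T47D cells (7K/well) were exposed for 3 days at 37° C to 3-fold serial dilutions of compound, top final concentration 0.1 or 1 μM.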

[1] = T47D cells, 3 days compound treatment

DC50 [1]	Dmax [1]	SMILES	Dmax (T47D)	DC50
		CNC(=O)COc1cc2cc(Nc3nc(N4CCC(OC5CCC6(CC5)CN(c5c(F)cc7c(c5F)CN(C5CCC(=O)NC5=O)C7=O)C6)CC4)ncc3Cl)ccc2n(C(C)C)c1=O (stereo not shown) [Compound 324, 2-{[6-({5-chloro-2-[4-({2-[2-(2,6-dioxopiperidin-3-yl)-4,6-difluoro-1-oxo-2,3-dihydro-1H-isoindol-5-yl]-2-azaspiro[3.5]nonan-7-yl}oxy)piperidin-1-yl]pyrimidin-4-yl}amino)-2-oxo-1-(propan-2-yl)-1,2-dihydroquinolin-3-yl]oxy}-N-methylacetamide]	50 to 70%	< 10 nM
10 to 50 nM	< 50%	CNC(=O)COc1cc2cc(Nc3nc(N4CC5C(CN6CCN(c7ccc8c(c7)C(=O)N(C7CCC(=O)NC7=O)C8=O)CC6)C5C4)ncc3Cl)ccc2n(C(C)C)c1=O (stereo not shown) [Compound 157, 2-{[6-({5-chloro-2-[6-({4-[2-(2,6-dioxopiperidin-3-yl)-1,3-dioxo-2,3-dihydro-1H-isoindol-5-yl]piperazin-1-yl}methyl)-3-azabicyclo [3.1.0]hexan-3-yl]pyrimidin-4-yl}amino)-2-oxo-1-(propan-2-yl)-1,2-dihydroquinolin-3-yl]oxy}-N-methylacetamide]		
		CNC(=O)COc1cc2cc(Nc3nc(N4CCC(O[C@H]5C[C@H](N6CC7(CN(c8ccc9c(c8)CN(C8CCC(=O)NC8=O)C9=O)C7)C6)C5)CC4)ncc3Cl)ccc2n(C(C)C)c1=O (stereo partly shown) [Compound 353, 2-({6-[(5-chloro-2-{4-[(1r,3r)-3-{6-[2-(2,6-dioxopiperidin-3-yl)-1-oxo-2,3-dihydro-1H-isoindol-5-yl]-2,6-diazaspiro [3.3]heptan-2-yl}cyclobutoxy]piperidin-1-yl}pyrimidin-4-yl)amino]-2-oxo-1-(propan-2-yl)-1,2-dihydroquinolin-3-yl}oxy)-N-methylacetamide]	≥ 70%	< 10 nM
		CNC(=O)COc1cc2cc(Nc3nc(N4CCC(O[C@H]5C[C@H](N6CCN(c7ccc8c(c7)CN([C@H]7CCC(=O)NC7=O)C8=O)C(C)(C)C6)C5)CC4)ncc3Cl)ccc2n(C(C)C)c1=O [Compound 211, 2-({6-[(5-chloro-2-{4-[(1r,3r)-3-{4-[2-(2,6-dioxopiperidin-3-yl)-1-oxo-2,3-dihydro-1H-isoindol-5-yl]-3,3-dimethylpiperazin-1-yl}cyclobutoxy]piperidin-1-yl}pyrimidin-4-yl)amino]-2-oxo-1-(propan-2-yl)-1,2-dihydroquinolin-3-yl}oxy)-N-methylacetamide]	≥ 70%	< 10 nM
< 10 nM	50 to 70%	CNC(=O)COc1cc2cc(Nc3nc(N4CCC5(CCN(CC6(F)CCN(c7ccc(F)c8c7CN(C7CCC(=O)NC7=O)C8=O)CC6)CC5)CC4)ncc3Cl)ccc2n(C(C)C)c1=O (stereo not shown) [Compound 129, 2-{[6-({5-chloro-2-[9-({1-[2-(2,6-dioxopiperidin-3-yl)-7-fluoro-1-oxo-2,3-dihydro-1H-isoindol-4-yl]-4-fluoropiperidin-4-yl}methyl)-3,9-diazaspiro[5.5]undecan-3-yl]pyrimidin-4-yl}amino)-2-oxo-1-(propan-2-yl)-1,2-dihydroquinolin-3-yl]oxy}-N-methylacetamide]		
< 10 nM	50 to 70%	CNC(=O)COc1cc2cc(Nc3nc(N4CCC(O[C@H]5CC[C@H](Oc6cccc7c6C(=O)N(C6CCC(=O)NC6=O)C7=O)CC5)CC4)ncc3Cl)ccc2n(C(C)C)c1=O (stereo partly shown) [Compound 31, 2-[(6-{[5-chloro-2-(4-{[(1r,4r)-4-{[2-(2,6-dioxopiperidin-3-yl)-1,3-dioxo-2,3-dihydro-1H-isoindol-4-yl]oxy}cyclohexyl]oxy}piperidin-1-yl)pyrimidin-4-yl]amino}-2-oxo-1-(propan-2-yl)-1,2-dihydroquinolin-3-yl)oxy]-N-methylacetamide]		
		CNC(=O)COc1cc2cc(Nc3nc(N4CCC(O[C@H]5C[C@H](N6CCC7(CCN(c8ccc9c(c8)C(=O)N(C8CCC(=O)NC8=O)C9=O)CC7)CC6)C5)CC4)ncc3Cl)ccc2n(C(C)C)c1=O (stereo partly shown) [Compound 343, 2-({6-[(5-chloro-2-{4-[(1r,3r)-3-{9-[2-(2,6-dioxopiperidin-3-yl)-1,3-dioxo-2,3-dihydro-1H-isoindol-5-yl]-3,9-diazaspiro [5.5]undecan-3-yl}cyclobutoxy]piperidin-1-yl}pyrimidin-4-yl)amino]-2-oxo-1-(propan-2-yl)-1,2-dihydroquinolin-3-yl}oxy)-N-methylacetamide]	50 to 70%	< 10 nM
< 10 nM	≥ 70%	CNC(=O)COc1cc2cc(Nc3nc(N4CCC(OC5CN([C@H]6CC[C@@H](c7ccc8c(c7F)CN(C7CCC(=O)NC7=O)C8=O)CC6)C5)CC4)ncc3Cl)ccc2n(C(C)C)c1=O (stereo partly shown) [Compound 184]		
		CNC(=O)COc1cc2cc(Nc3nc(N4CCC(CN5CCC6(CN(c7ccc8c(c7OC)CN(C7CCC(=O)NC7=O)C8=O)C6)C(F)(F)C5)CC4)ncc3Cl)ccc2n(C(C)C)c1=O (stereo not shown) [Compound 352, 2-{[6-({5-chloro-2-[4-({2-[2-(2,6-dioxopiperidin-3-yl)-4-methoxy-1-oxo-2,3-dihydro-1H-isoindol-5-yl]-5,5-difluoro-2,7-diazaspiro [3.5]nonan-7-yl}methyl)piperidin-1-yl]pyrimidin-4-yl}amino)-2-oxo-1-(propan-2-yl)-1,2-dihydroquinolin-3-yl]oxy}-N-methylacetamide]	< 50%	10 to 50 nM
< 10 nM	50 to 70%	CNC(=O)COc1cc2cc(Nc3nc(N4CCN(CC5CCN(c6cc7c(cc6F)C(=O)N(C6CCC(=O)NC6=O)C7)CC5)CC4)ncc3Cl)ccc2n(C(C)C)c1=O (stereo not shown) [Compound 15, 2-{[6-({5-chloro-2-[4-({1-[2-(2,6-dioxopiperidin-3-yl)-6-fluoro-1-oxo-2,3-dihydro-1H-isoindol-5-yl]piperidin-4-yl}methyl)piperazin-1-yl]pyrimidin-4-yl}amino)-2-oxo-1-(propan-2-yl)-1,2-dihydroquinolin-3-yl]oxy}-N-methylacetamide]		
		CNC(=O)COc1cc2cc(Nc3nc(N4CCC(CN5CCN(c6ccc7c(c6C)C(=O)N(C6CCC(=O)NC6=O)C7=O)CC5)CC4)ncc3Cl)ccc2n(C(C)C)c1=O (stereo not shown) [Compound 403, 2-{[6-({5-chloro-2-[4-({4-[2-(2,6-dioxopiperidin-3-yl)-4-methyl-1,3-dioxo-2,3-dihydro-1H-isoindol-5-yl]piperazin-1-yl}methyl)piperidin-1-yl]pyrimidin-4-yl}amino)-2-oxo-1-(propan-2-yl)-1,2-dihydroquinolin-3-yl]oxy}-N-methylacetamide]	50 to 70%	< 10 nM
≥ 100 nM		CNC(=O)COc1cc2cc(Nc3nc(N4CCOC5(CN(CC6CCN(c7ccc8c(c7)C(=O)N(C7CCC(=O)NC7=O)C8=O)CC6)C5)C4)ncc3Cl)ccc2n(C(C)C)c1=O (stereo not shown) [Compound 142, 2-{[6-({5-chloro-2-[2-({1-[2-(2,6-dioxopiperidin-3-yl)-1,3-dioxo-2,3-dihydro-1H-isoindol-5-yl]piperidin-4-yl}methyl)-5-oxa-2,8-diazaspiro[3.5]nonan-8-yl]pyrimidin-4-yl}amino)-2-oxo-1-(propan-2-yl)-1,2-dihydroquinolin-3-yl]oxy}-N-methylacetamide]		
< 10 nM	≥ 70%	CNC(=O)COc1cc2cc(Nc3nc(N4CCC5(CC4)CN(C(C)(C)C4CCN(c6cccc7c6CN(C6CCC(=O)NC6=O)C7=O)CC4)C5)ncc3Cl)ccc2n(C(C)C)c1=O (stereo not shown) [Compound 36, 2-{[6-({5-chloro-2-[2-(2-{1-[2-(2,6-dioxopiperidin-3-yl)-1-oxo-2,3-dihydro-1H-isoindol-4-yl]piperidin-4-yl}propan-2-yl)-2,7-diazaspiro [3.5]nonan-7-yl]pyrimidin-4-yl}amino)-2-oxo-1-(propan-2-yl)-1,2-dihydroquinolin-3-yl]oxy}-N-methylacetamide]		
		CNC(=O)COc1cc2cc(Nc3nc(N4CCC(O[C@H]5C[C@H](N6CCC(c7cc8c(cc7C(F)(F)F)C(=O)N(C7CCC(=O)NC7=O)C8)CC6)C5)CC4)ncc3Cl)ccc2n(C(C)C)c1=O (stereo partly shown) [Compound 212, 2-({6-[(5-chloro-2-{4-[(1r,3r)-3-{4-[2-(2,6-dioxopiperidin-3-yl)-1-oxo-6-(trifluoromethyl)-2,3-dihydro-1H-isoindol-5-yl]piperidin-1-yl}cyclobutoxy]piperidin-1-yl}pyrimidin-4-yl)amino]-2-oxo-1-(propan-2-yl)-1,2-dihydroquinolin-3-yl}oxy)-N-methylacetamide]	50 to 70%	< 10 nM
50 to 100 nM	< 50%	CNC(=O)COc1cc2cc(Nc3nc(N4CCN(C[C@H]5C[C@@H](N6CCC(c7cccc8c7C(=O)N(C7CCC(=O)NC7=O)C8=O)CC6)C5)CC4)ncc3Cl)ccc2n(C(C)C)c1=O (stereo partly shown) [Compound 23, 2-[(6-{[5-chloro-2-(4-{[(1s,3s)-3-{4-[2-(2,6-dioxopiperidin-3-yl)-1,3-dioxo-2,3-dihydro-1H-isoindol-4-yl]piperidin-1-yl}cyclobutyl]methyl}piperazin-1-yl)pyrimidin-4-yl]amino}-2-oxo-1-(propan-2-yl)-1,2-dihydroquinolin-3-yl)oxy]-N-methylacetamide]		
		CNC(=O)COc1cc2cc(Nc3nc(N4CCC(OC5CN([C@H]6CC[C@H](c7ccc8c(c7)C(=O)N(C7CCC(=O)NC7=O)C8=O)CC6)C5)CC4)ncc3Cl)ccc2n(C(C)C)c1=O (stereo partly shown) [Compound 341, 2-{[6-({5-chloro-2-[4-({1-[(1r,4r)-4-[2-(2,6-dioxopiperidin-3-yl)-1,3-dioxo-2,3-dihydro-1H-isoindol-5-yl]cyclohexyl]azetidin-3-yl}oxy)piperidin-1-yl]pyrimidin-4-yl}amino)-2-oxo-1-(propan-2-yl)-1,2-dihydroquinolin-3-yl]oxy}-N-methylacetamide]	50 to 70%	10 to 50 nM

From patent US11986532B2 (Arvinas Operations, Inc., priority 2021, dated 2024)
